In patent US12668830B2, “Pharmaceutical compositions for prevention and/or treatment of infections and antibacterial-induced dysfunctions” (priority 2018, dated 2026):
Entries after “also recorded” stand apart in the source; their conditions may differ. Like-named read-outs stand apart in the source and are kept apart here.

Tests used:
[1] = test system: E. coli (BW25113 wildtype and mutants); assay: Minimal Inhibitory Concentration (MIC) calculation; format: cell-based, Escherichia coli; conditions: for Effect on MIC of chloramphenicol / Effect on MIC of ciprofloxacin: vanillin 150 μg/ml, aspirin 500 μg/ml, E. coli; for MIC: Escherichia coli
Description: MICs to all drugs were computed using a logistic fit of growth (OD595 nm for 8 h) over 2-fold serial dilutions of the antibiotic concentrations for all strains used for the high throughput screening and follow-up experiments.

[2] = test system: E. coli BW mutants (ΔacrA, respiration-defective); format: cell-based, Escherichia coli; conditions: ciprofloxacin 70% MIC
Description: Aminoglycosides depend on PMF-energized uptake and thus respiratory complexes; ciprofloxacin is effluxed by AcrAB-TolC. […] Bliss interaction scores (ε) were calculated as in the screen and are represented by the mean and standard deviation across 3-8 replicates. d) Gentamicin and ciprofloxacin antagonism networks for E. coli BW. Nodes represent drugs colored according to targeted cellular process (as FIG. 1a). Full and dashed edges represent antagonistic drug-drug interactions for which intracellular antibiotic concentration was and was not measured, respectively. […] The bars for fluoroquinolones and aminoglycosides account for an extrapolation of antagonistic interactions to all other members of the two classes, assuming they behave the same as ciprofloxacin and gentamicin, respectively.
The kanamycin resistance cassettes was excised when necessary using the plasmid pCP20. The plasmid used for mdfA overexpression was obtained from the mobile E. coli ORF library.

[3] = test system: E. coli, S. typhimurium and P. aeruginosa; assay: Screen across all three species / conservation of drug-drug interactions; format: cell-based; conditions: for General effect in combinations: conserved interaction network; for Antibacterial activity / growth inhibition of the drug on its own: single drug, in the screen
Description: Conservation of drug-drug interactions between strains of the same species was assessed by Pearson correlation of the interactions scores ε. For potentially non-conserved drug-drug interactions, the expected fitness distributions of the two strains were taken into account.
To assess the cross-species conservation of drug-drug interactions, the inventors took into account only drug pairs that were probed in all three species. […] Interactions were then compared across the three species. Cases in which an interaction between drugs changed sign across species (conflicting interactions; ˜7% of all interactions) were excluded from the comparative “across-species” Venn diagram (FIG. 3D). Note that with current analysis a given drug-drug interaction may be conserved across species, but not conserved within the species.
Conservation at the single drug level was defined based on shared resistance and sensitivity. A strain was considered sensitive to a given drug if one of the drug concentrations inhibited growth for at least 30%.

[4] = test system: E. coli BW and E. coli iAi1; assay: Benchmarking 8×8 checkerboard assays (Bliss / Loewe additivity); format: cell-based, Escherichia coli; conditions: 8×8 checkerboards
Description: For combinations between ß-lactams for which high-resolution 8×8 checkerboards with sufficient growth inhibition was available in the validation dataset, Loewe additivity was used to confirm the interactions. Drug-drug interactions were inferred by the shape of the isoboles (lines of equal growth) in two-dimensional drug concentration plots. […] To interpolate IC50 concentrations (or other ICn %), a logistic model was used to fit the growth for each concentration of the first drug across different concentrations of the second drug. The null-hypothesis of this model is represented by the additivity line: a linear isobole connecting equal individual IC's by the two drugs.
As in the screen, growth was assessed based on OD595 nm at early stationary phase for the no drug controls. The time-points used in the screen were used again here for screen strains, whereas 8 hours were used for all E. coli and K. pneumoniae MDR isolates. Fitness was calculated by dividing OD595 nm after single or double drug treatment by no drug treatment for each individual checkerboard. Bliss scores (ε) were calculated for all concentration ratios tested per drug combination, resulting in 49 ε values per drug pair. […] Antagonism was called when the median of the & distribution was above 0.1 or the Q3 was above 0.15. […]

[5] = test system: MDR clinical isolates E. coli 124, 1027, 1334; assay: 8×8 checkerboard assays against MDR clinical isolates; format: cell-based, Escherichia coli
Excerpt: (§1) For each of the three Gram-negative species profiled in this study, the inventors used two broadly used and sequenced strains: Escherichia coli K-12 BW25113 and O8 IAI1, Salmonella enterica serovar typhimurium LT2 and 14028s, Pseudomonas aeruginosa PAO1 and PA14. To validate selected synergies, the inventors profiled 6 MDR clinical Enterobacteriaceae isolates recovered from human patient specimens: E. coli 124, 1027, 1334 and Klebsiella pneumoniae 718, 929 and 980.

[6] = test system: MDR clinical isolates Klebsiella pneumoniae 718, 929 and 980; assay: as above; format: cell-based; conditions: MDR K. pneumoniae isolates
Excerpt: as §1

E. coli MG1655 = assay: Intracellular gentamicin concentration with [3H]-gentamicin; format: cell-based, Escherichia coli; conditions: gentamicin 5 μg/ml plus second drug
Description: Intracellular gentamicin was quantified by measuring [3H]-gentamicin (1 mCi/ml; Hartmann Analytic Corp.), as previously described. Overnight cultures of E. coli MG1655 (ther parental stain of BW25113) were diluted 1:1,000 into 5 ml LB and grown to OD595 nm˜0.1. [3H]-gentamicin was diluted in cold gentamicin to get a 5 mg/ml (0.1 mCi/ml) stock solution, which was then added to the culture at a final concentration of 5 μg/ml (0.1 μCi/ml), simultaneously with the second drug: Berberine (200 μg/ml), Erythromycin (15 μg/ml), Metformin (13000 μg/ml), Procaine (6000 μg/ml), Loperamide (400 μg/ml), Benzalkonium (5 μg/ml). […] Cultures were then incubated at 37° C. on a rotary shaker. At 0, 0.5, 1, 1.5 and 2 h time-points, 500 μl aliquots were removed and applied to a 0.45 μm-pore-size HAWP membrane filter (Millipore) pretreated with 1 ml of unlabeled gentamicin (250 μg/ml). Filters were washed with 10 ml of 1.5% NaCl, placed into counting vials, and dried for 30 min at 52° C. 8 ml of liquid scintillation were then added to the dried filters and vials were incubated overnight at room temperature before being counted for 5 min. Gentamicin uptake efficiency is expressed as total accumulation of gentamicin (ng) per 108 cells, and plotted here for the final timepoint (2 h) for simplicity.

E. coli BW25113 = assay: Intracellular spectinomycin concentration with [3H]-spectinomycin; format: cell-based, Escherichia coli; conditions: vanillin 150 μg/ml; mdfA-dependent
Description: Intracellular spectinomycin was quantified by measuring [3H]-spectinomycin (1 μCi/mg; Hartmann Analytic Corp.). Overnight cultures of E. coli BW25113 were diluted 1:1,000 into 1 ml LB with and without vanillin (150 μg/ml) and grown to OD595 nm˜0.5. 50 μg/ml [3H]-spectinomycin:spectinomycin 1:100 was added and the cultures were incubated for 1 h. Cultures were pelleted, washed twice with PBS with 50 μg/ml non-labeled spectinomycin, re suspended in 1% SDS and incubated for 20 min at 85° C. The lysate was mixed with 8 ml liquid scintillation (Perkin Elmer ULTIMA Gold) and counted for 1 min using a Perkin Elmer Tri-Carb 2800TR. Measured radioactivity was normalized to cell number as measured by OD595 nm.

marA = assay: Quantitative RT-PCR of marA expression; format: cell-based, Escherichia coli; conditions: vanillin 150 μg/ml
Description: Overnight cultures of E. coli BW25113 and the marR deletion mutant were diluted 1:2,000 into 20 ml LB and grown at 37° C. to OD595 nm˜0.2. Aspirin or vanillin were added to the cultures to 500 and 150 μg/ml final concentration respectively (DMSO was added in the control), followed by a 30 min incubation period at 37° C. with agitation. Cells were harvested and RNA extraction was done with the RNeasy Protect Bacteria Mini Kit (Qiagen) according to manufacturer's directions. cDNA was prepared for qRT-PCR using SuperScript™ III Reverse Transcriptase (Thermo Fisher Scientific). marA and mdfA expression levels were estimated by quantitative RT-PCR using SYBR™ Green PCR master mix following the manufacturer's instructions (Thermo Fisher Scientific). Primer sequences for marA and recA are previously described. All experiments were conducted in at least three biological replicates, and relative expression levels were estimated according to Livak et al., using recA expression as reference.

AcrA = assay: Immunoblot analysis for AcrA protein quantification; format: cell-based, Escherichia coli; conditions: vanillin 150 μg/ml; marA-dependent
Description: Overnight cultures of E. coli BW25113 and the ΔmarA mutant were diluted 1:1,000 into 50 ml LB containing 500 μg/ml aspirin, 150 μg/ml vanillin or DMSO (drugs solvent control), followed by growth with agitation at 37° C. to OD595 nm˜0.5. Cells were washed in PBS containing corresponding drugs or DMSO, then resuspended to match OD595 nm=1. Cell pellets were resuspended in Laemmli buffer and heated to 95° C. for 3 minutes followed by immunoblot analysis with a-AcrA polyclonal antiserum (gift from K. M. Pos) at 1:200,000 dilution. Primary antiserum was detected using anti-rabbit HRP (A0545 Sigma) at 1:5,000 dilution. Pixel densities of bands were quantified using ImageJ. At least five different biological replicates were blotted and summarized by their mean and standard deviation.

## CC(=O)Oc1ccccc1C(=O)O [aspirin, acetylsalicylic acid]
[1]
  Effect on MIC of chloramphenicol: increase
  Effect on MIC of ciprofloxacin: increase

## Cn1c(=O)c2c(ncn2C)n(C)c1=O [caffeine]
[2]
  Antagonism with ciprofloxacin in mutant: resolved

## COc1ccc(CCN(C)CCCC(C#N)(c2ccc(OC)c(OC)c2)C(C)C)cc1OC (stereo not shown) [verapamil]
[3]
  General effect in combinations: general potentiating effect

## CCN1CCN(C(=O)N[C@@H](C(=O)N[C@@H]2C(=O)N3[C@@H]2SC(C)(C)[C@@H]3C(=O)O)c2ccccc2)C(=O)C1=O [Piperacillin, piperacillin]
[4]
  Growth inhibition reached by single drug: did not reach 50% growth inhibition

## C[n+]1ccc(-c2cc[n+](C)cc2)cc1 [paraquat]
[2]
  Antagonism with ciprofloxacin in mutant: resolved

## CN[C@@H]1[C@H](O)[C@H](NC)[C@H]2O[C@@]3(O)C(=O)C[C@@H](C)O[C@H]3O[C@@H]2[C@H]1O [spectinomycin]
[1]; 100 μg/ml vanillin, wildtype E. coli BW and knockouts of AcrAB-TolC members or MarA
  Spectinomycin MIC change upon addition of vanillin: decreases
[1]; BW25113, read-out: MIC of spectinomycin, E. coli, with vanillin (65 μg/ml)
  MIC: ~15 µg/mL
[1]; BW25113, read-out: MIC of spectinomycin, largely resistant E. coli, without vanillin
  MIC: > 30 µg/mL
[1]; deletion of mdfA
  Spectinomycin MIC change: increased
[1]; overexpression of mdfA (pmdfA) vs E. coli BW, MIC does not change
  Spectinomycin sensitivity (dose response): increased spectinomycin sensitivity
[1]; with 500 μg/ml aspirin
  Increase of spectinomycin MIC: ~3 fold
[1]; with vanillin, mild overexpression of mdfA (pmdfA), comparing to MIC of combination in wildtype
  Decrease of spectinomycin MIC: ~2 fold

## CN(C)C(=O)C(CCN1CCC(O)(c2ccc(Cl)cc2)CC1)(c1ccccc1)c1ccccc1 [Loperamide, loperamide]
[3]
  General effect in combinations: general potentiating effect
[5]; MDR E. coli isolates
  Effect on activity of colistin: potentiated
  Effect on activity of doxycycline: potentiated
[6]
  Effect on activity of colistin: potentiated
  Effect on activity of doxycycline: potentiated

## COc1cc(/C=C/C(=O)CC(=O)/C=C/c2ccc(O)c(OC)c2)ccc1O [curcumin]
[2]
  Antagonism with ciprofloxacin in mutant: remain largely intact

## benzalkonium
E. coli MG1655
  Effect on intracellular gentamicin concentration: decreases
[2]
  Antagonism with ciprofloxacin in mutant: remain largely intact

## COc1cc(C=O)ccc1O [vanillin]
[3]
  Antibacterial activity / growth inhibition of the drug on its own: no antibacterial activity
[5]; E. coli MDR isolates
  Effect on activity of spectinomycin: potentiated
[1]
  Effect on MIC of chloramphenicol: increase
  Effect on MIC of ciprofloxacin: increase
E. coli BW25113
  Effect on intracellular spectinomycin concentration: increased; also recorded: accumulation
marA
  marA expression: overexpression
AcrA
  AcrA protein levels: increases

## CCN(CC)CCOC(=O)c1ccc(N)cc1 [procaine]
[3]
  General effect in combinations: general potentiating effect
  Antibacterial activity / growth inhibition of the drug on its own: did not inhibit bacterial growth on its own
[5]; MDR E. coli isolates
  Effect on activity of doxycycline: resensitized
  Effect on activity of fusidic acid: resensitized
[6]
  Effect on activity of doxycycline: resensitized
  Effect on activity of fusidic acid: resensitized
